The subject of assay [1] is Johnson grass (JG). Kind of assay: Post-emergence herbicide test. The format is in vivo, Sorgum helepense. The note with it: Sorghum halepense, 336 h, two weeks after treatment; for pest or weed control at 4483.4 g/ha: 4 lb/acre. How it is done: (§1) Johnson grass (JG)--Sorgum helepense
(§2) All crop and weed species were planted individually in 3' plastic pots containing potting soil. Four seeds each of corn, cotton, and snapbeans were seeded to a depth equal to the diameter of the seed. All other species were surface seeded and sprinkled with screened soil in an amount sufficient to cover the seed. Immediately after planting, all pots were watered by sub-irrigation in greenhouse trays. Pots for the pre-emergence phase were seeded one day before treatment.
(§3) Planting dates for the post-emergence phase were varied so that all seedlings would reach the desired stage of development simultaneously. The proper stage of seedling development for treatment in the post-emergence phase is as follows:
(§4) Compounds were tested at rates of application equivalent to 8 lbs. of actual compound per acre in a spray volume of 38 gallons per acre. Spray hood constants required to deliver the above volume are as follows:
(§5) Formulations for spray applications were prepared in 50 ml volumes with the following three components:
(§6) Formulations for the 4 lbs/acre rate were prepared by adjusting the amount of active ingredient accordingly.
(§7) Spray applications were made in a hood containing a removable belt and fixed spray nozzle. For passage through the spray hood, one pot of each specie (pre-emergence phase) was placed on the rear half of the flat. Treatments were removed to the greenhouse after spraying. Watering during the observation period was done only by sub-irrigation.
(§8) Two weeks after treatment, pre- and post-emergence injury or control was visually rated, and the results were as shown in the following tables. Pre-emergence data are provided in TABLE III and post-emergence data are provided in TABLE IV, for compounds having the formula illustrated in TABLE I. Correspondingly, pre-emergence and post-emergence data, respectively, are set forth in TABLES V AND VI, for compounds having the formula illustrated in TABLE II.

Assay [2] has as its system Turnip (TP). Kind of assay: Post-emergence herbicide test. The format is in vivo, Brassica sp. Particulars: Brassica rapa, post-emergence, 336 h, two weeks after treatment; for pest or weed control at 4483.4 g/ha: 4 lb/acre; for pest or weed control at 2241.7 g/ha: 2 lb/acre. How it is done:
(§9) Turnip (TP)--Brassica sp.
as §2, §3
Pigweed and turnips: 1 or 2 true leaves above visible cotyledons.
(§10) Spray hood constants required to deliver the above volume are as follows:
(§11) Formulations for spray applications were prepared in 50 ml volumes with the following three components: […]
as §7, §8

In assay [3] the test system is Bean (BN). Kind of assay: Post-emergence herbicide test. The format is in vivo, Phaseolus vulgaris var. Black Valentine. The note with it: Phaseolus vulgaris, post-emergence, 336 h, two weeks after treatment; for pest or weed control at 4483.4 g/ha: 4 lb/acre. How it is done:
Bean (BN)--Phaseolus vulgaris var. Black Valentine
as §2, §3
Beans: primary leaves expanded, growing point at primary leaf nodes.
as §10, §5, §6, §7, §8

The test system of assay [4] is Corn (CN). Kind of assay: Post-emergence herbicide test. In kind it is in vivo. The note with it: Zea mays, 336 h, two weeks after treatment; for pest or weed control at 4483.4 g/ha: 4 lb/acre. The procedure: as §2, §3, §4, §5, §6, §7, §8
The test system of assay [5] is Cotton (CT). Kind of assay: Post-emergence herbicide test. In kind it is in vivo, Gossypium hirsutum var. DPL smooth leaf. The note with it: Gossypium hirsutum, post-emergence, 336 h, two weeks after treatment; for pest or weed control at 4483.4 g/ha: 4 lb/acre. The procedure:
Cotton (CT)--Gossypium hirsutum var. DPL smooth leaf
as §2, §3
Cotton: first true leaf 1' in length; expanded cotyledons.
as §10, §5, §6, §7, §8

Assay [6] has as its system Barnyard grass (BG). Kind of assay: Post-emergence herbicide test. In kind it is in vivo. Particulars: Echinochloa crus-galli, 336 h, two weeks after treatment; for pest or weed control at 4483.4 g/ha: 4 lb/acre. The procedure: (§12) Barnyard grass (BG)--Echinochloa crus-galli
as §2, §3, §4, §5, §6, §7, §8

The subject of assay [7] is Crabgrass (CG). Kind of assay: Post-emergence herbicide test. The format is in vivo, Digitaria sanquinalis. Particulars: Digitaria sanguinalis, post-emergence, 336 h, two weeks after treatment; for pest or weed control at 4483.4 g/ha: 4 lb/acre. How it is done:
(§13) Crabgrass (CG)--Digitaria sanquinalis
as §2, §3, §10, §11, §7, §8

Assay [8] deals with Barnyard grass (BG). Kind of assay: Pre-emergence herbicide test. In kind it is in vivo. The note with it: Echinochloa crus-galli, 336 h, 4 lb/acre, two weeks after treatment. How it is done:
as §12, §2, §4, §5, §6, §7, §8

Assay [9] relates to Crabgrass (CG). Description: Pre-emergence herbicide test. The format is in vivo, Digitaria sanquinalis. Particulars: Digitaria sanguinalis, pre-emergence, 336 h, two weeks after treatment; for pest or weed control at 4483.4 g/ha: 4 lb/acre. The procedure: as §13, §2, §10, §11, §7, §8
For assay [10], the system named is Turnip (TP). Description: Pre-emergence herbicide test. In kind it is in vivo, Brassica sp. Particulars: Brassica rapa, pre-emergence, 336 h, two weeks after treatment; for pest or weed control at 4483.4 g/ha: 4 lb/acre. The procedure:
as §9, §2, §10, §11, §7, §8

Assay [11] deals with Johnson grass (JG). Kind of assay: Pre-emergence herbicide test. In kind it is in vivo, Sorgum helepense. Particulars: Sorghum halepense, 336 h, two weeks after treatment. How it is done:
as §1, §2, §4, §5, §6, §7, §8

Each structure is given as a SMILES string.

On to `CCCCCSc1nnc(NC(=O)NC)s1` [Example 59], for which the pest or weed control at 4483.4 g/ha in [1] worked out at 80%; in assay [2] it was 100%; in [3], 100%; in assay [4], 40%; in assay [5], 100%; in assay [6] it was 70%. For the same molecule, in [7], the pest or weed control at 4483.4 g/ha is 90%.
For the molecule `CNC(=O)Nc1nnc(C2CC2)s1` [Example 85], the pest or weed control at 4483.4 g/ha was 60% in assay [2]; 50% in assay [3]; 0% in assay [8]; 0% in [9]; 80% in [5]; 30% in assay [7]. For the same molecule, the pest or weed control at 4483.4 g/ha in assay [10] turned out to be 0%.
Regarding `CNC(=O)Nc1nnc(C(C)C)s1` [Example 82], the pest or weed control at 4483.4 g/ha turned out to be 0% in [11] (4 lb/acre); 80% in assay [2]; 60% in assay [3]; 30% in assay [9]; 80% in [5]; 50% in [7]. Besides, the pest or weed control at 4483.4 g/ha in assay [10] is 20%.
For the molecule `CCCCCCSc1nnc(NC(=O)NC)s1` [Example 60], the pest or weed control at 4483.4 g/ha worked out at 70% in assay [1]; 100% in assay [2]; 100% in assay [3]; 60% in assay [4]; 70% in assay [5]; 40% in assay [6]. For the same molecule, in assay [7], the pest or weed control at 4483.4 g/ha was determined as 80%. The molecule further registered a pest or weed control at 2241.7 g/ha in assay [2] of 100%.
Turning to `CNC(=O)Nc1nnc(SCC(C)C)s1` [Example 44], the pest or weed control at 1120.85 g/ha came out at 60% in assay [1] (1 lb/acre); 40% in [2] (1 lb/acre); 80% in [3] (1 lb/acre); 60% in assay [4] (1 lb/acre); 100% in [5] (1 lb/acre); 80% in assay [6] (1 lb/acre). For the same molecule, in assay [7] (1 lb/acre), the pest or weed control at 1120.85 g/ha was 80%. Further, the pest or weed control in [1] (2 lb/acre) was 80%; in assay [4] (2 lb/acre) it was 60%; in assay [7] (2 lb/acre), 90%. For the same molecule, the pest or weed control at 2241.7 g/ha in assay [2] came to 80%; in [3] (2 lb/acre), 100%; in [5] (2 lb/acre), 100%; in assay [6] (2 lb/acre), 90%.
Regarding `Cc1nnc(NC(N)=O)s1` [Example 84, reference compound], the pest or weed control at 11208.5 g/ha in assay [11] (10 lb/acre) turned out to be 50%; in assay [2] (10 lb/acre), 80%; in assay [3] (10 lb/acre), 50%; in [9] (10 lb/acre), 0%; in assay [5] (10 lb/acre) it was 20%; in assay [7] (10 lb/acre), 20%. The pest or weed control at 11208.5 g/ha in assay [10] (10 lb/acre) amounted to 0%.

As usually defined, the pest or weed control is how far the test organism was held down. Low values mean weak suppression, high ones strong suppression.

For the origin of these results see patent publication US4175081A, “5-Substituted thiadiazole ureas” (priority 1977, dated 1979).
